Reference: patent US7745390B2, “Antimicrobial peptides” (priority 2005, dated 2010)
Square brackets hold non-standard residues; d marks the D form. Ends that are not written are not given here. Peptide text beside a SMILES is read from it. Chg = N[C@H](C(=O)O)C1CCCCC1

What was measured:
[1] = system: Salmonella; format: cell-based, S. typhimurium; details: pH 7.2
Experimental: (§1) The experiments described above characterizing the activity of granulysin peptides G1-G18 relied on counting bacterial colonies on plates. This assay is quite labor intensive and would not allow evaluation of many different compounds on a number of different microbes. Therefore, we optimized an assay in which the entire procedure could be completed in a single microtiter well. Briefly, peptides are diluted in 10 mM phosphate buffer, pH 7.2 supplemented with 0.03% LB (J. Sambrook, D. W. Russell, Molecular Cloning: A Laboratory Manual (Cold Spring Harbor Laboratory Press, New York, ed. 3, 2001) pg. A2.2, Retrieved from http://openwetware.org/wiki/LB) and 25 μl is added to microtiter wells. Bacteria (25 μl) are added (˜5×10^6 colony forming units/ml) in the same buffer. After a 3-hour incubation at 37° C., 150 μl of LB is added and the plates are incubated overnight. The OD at 600 nm is read on an ELISA plate reader. The minimum inhibitory concentration (MIC) is the lowest concentration allowing no bacterial growth. The IC50 is the concentration of peptide that results in 50% growth compared to the medium.
(§2) We now describe additional peptides and their activity. The peptides have been designed, synthesized, and have been tested for lysis of E. coli and S. typhimurium (gram negative bacteria), B. cereus (gram positive bacterium). Results are shown in Table 2 along with the amino acid sequence of the peptide. Changes from the naturally occurring sequence are underlined. In general, the desired result is lysis of bacteria at low concentration (<1 μM).
(§3) In Table 2, Columns 2-7 are the MIC and IC50 (concentration required for 50% inhibition of growth) for each organism (E. coli, Salmonella, and B. cereus). The MIC (minimum inhibitory concentration) was determined as described above, in a multiwell plate assay. […] L-isomer amino acids are designated by capital letters while D-isomer amino acids are designated by lower case letters.

[2] = system: B. cereus; format: cell-based; details: pH 7.2
Experimental: as §1, §2, §3

[3] = system: E. coli DH5a; format: cell-based; details: DH5a, pH 7.2
Experimental: as §1, §2, §3

Compound | IC50 [1] | Salmonella MIC [1] | B. cereus MIC [2] | IC50 [2] | E. coli DH5a MIC [3] | IC50 [3]
QRSVSRAATRVSRTGRSRWRDVSRRFMRR [Peptide G8.4] | 0.21 µM | 0.35 µM | 0.7 µM | 0.45 µM | 0.7 µM | 0.45 µM
FDTPRRVSRRFMRRLGH [Peptide G11.43, FDTPRRVSRRFMRRLGH] | 3 µM | >10 µM | 0.75 µM | 0.21 µM | 0.75 µM | 0.42 µM
RRLLRRLLRR [Peptide G11.20, RRLLRRLLRR] | 7.69 µM | >10 µM | >10 µM | > 10 µM | >10 µM | 7.7 µM
RRLLRRLLRRGSRRLLRRLLRR [Peptide G11.23] | 0.45 µM | 0.71 µM | 0.7 µM | 0.41 µM | 0.7 µM | 0.45 µM
VHKRRVSRRFMRRLGH [Peptide G11.42, VHKRRVSRRFMRRLGH] | 1.35 µM | 2.8 µM | 0.4 µM | 0.11 µM | 0.35 µM | 0.21 µM
GRSGWRDVSRNFRRG [Peptide G14.12, GRSGWRDVSRNFRRG] | > 10 µM | >10 µM | >10 µM | > 10 µM | >10 µM | 6.75 µM
RRPSRRFPRR [Peptide G11.37, RRPSRRFPRR] | 1.68 µM | 2.9 µM | >10 µM | > 10 µM | 2.4 µM | 0.45 µM
RRVVRRFMRR [Peptide G11.16, RRVVRRFMRR] | 3.45 µM | 5.6 µM | >10 µM | 7.7 µM | 1.4 µM | 0.8 µM
CSCC[C@H](NC(=O)[C@H](Cc1ccccc1)NC(=O)[C@H](CCCNC(=N)N)NC(=O)[C@H](CCCNC(=N)N)NC(=O)[C@@H](NC(=O)[C@@H](NC(=O)[C@H](CCCNC(=N)N)NC(=O)[C@@H](N)CCCNC(=N)N)C(C)C)C1CCCCC1)C(=O)N[C@@H](CCCNC(=N)N)C(=O)N[C@@H](CCCNC(=N)N)C(=O)O [Peptide G11.18, RRV-Chg-RRFMRR] (H-RRV[Chg]RRFMRR-OH; N-terminus and C-terminus assumed) | 0.88 µM | 1.4 µM | 5.7 µM | 3.51 µM | 5.65 µM | 3.4 µM
QRSVSRPPTRVSRTGRSRW [Peptide G13.11, QRSVSRPPTRVSRTGRSRW] | > 10 µM | >10 µM | >10 µM | > 10 µM | 5.75 µM | 2.72 µM
RRVSRRFMRRYQSRVPQGLV [Peptide G12.10] | 0.85 µM | 1.4 µM | 1.4 µM | 0.89 µM | 0.7 µM | 0.45 µM
RRVSRRFMRRSGSGSGSGQQMVQQSGQQFS [Peptide G11.40] | > 10 µM | >10 µM | >10 µM | > 10 µM | >10 µM | 3.28 µM
